In brackets after ≈: the same amount, converted by molar mass.
Assays:
[1] = system: Mycobacterium tuberculosis; experiment: Antitubercular activity against rifampicin-resistant Mycobacterium tuberculosis H37Rv ATCC 35338 after 7 days by resazurin microtiter assay; type: functional; conditions: H37Rv ATCC 35338, 168 h
[2] = system: Mycobacterium tuberculosis; experiment: Antitubercular activity against isoniazid-resistant Mycobacterium tuberculosis H37Rv ATCC 35822 after 7 days by resazurin microtiter assay; type: functional; conditions: H37Rv ATCC 35822, 168 h

Row | SMILES | MIC [1] | MIC [2]
1 | CCCCCCCC/C=C\CCCCCCCC(=O)NCCO [OLEOYLETHANOLAMIDE] | 25 µg/mL (≈ 76.8 µM) | 12.5 µg/mL (≈ 38.4 µM)
2 | CCCCCCCC/C=C\CCCCCCCC(=O)N1CCOCC1 | 12.5 µg/mL (≈ 35.6 µM) | 6.25 µg/mL (≈ 17.8 µM)
3 | CCCCCCCCCCCCCCCCCC(=O)N[C@@H](C)c1ccccc1 | > 100 µg/mL | > 100 µg/mL
4 | CCCCCC[C@@H](O)C/C=C\CCCCCCCC(=O)N[C@@H](C)c1ccccc1 | 50 µg/mL (≈ 124 µM) | 100 µg/mL (≈ 249 µM)
5 | CCCCC/C=C\C/C=C\CCCCCCCC(=O)N1CCCC1 | 12.5 µg/mL (≈ 37.5 µM) | 12.5 µg/mL (≈ 37.5 µM)
6 | CCCCCCCC/C=C\CCCCCCCC(=O)NCc1ccccc1 | – | 100 µg/mL (≈ 269 µM)
7 | CCCCCCCC/C=C\CCCCCCCC(=O)NC(C)c1ccccc1 (configuration not stated) | 100 µg/mL (≈ 259 µM) | –
8 | CCCCCC[C@@H](O)C/C=C\CCCCCCCC(=O)NCc1ccccc1 | 12.5 µg/mL (≈ 32.2 µM) | 12.5 µg/mL (≈ 32.2 µM)
9 | CCCCCCCCCCCCCCCC(=O)NCCO [PALMIDROL] | > 100 µg/mL | > 100 µg/mL
10 | CCCCC/C=C\C/C=C\CCCCCCCC(=O)N[C@H](C)c1ccccc1 | 25 µg/mL (≈ 65.2 µM) | 12.5 µg/mL (≈ 32.6 µM)
11 | CCCCC/C=C\C/C=C\CCCCCCCC(=O)N[C@@H](C)c1ccccc1 | 12.5 µg/mL (≈ 32.6 µM) | 6.25 µg/mL (≈ 16.3 µM)
12 | CCCCCC[C@@H](O)C/C=C\CCCCCCCC(=O)N[C@H](C)c1ccccc1 | 25 µg/mL (≈ 62.2 µM) | 12.5 µg/mL (≈ 31.1 µM)
13 | CCCCCC[C@@H](O)C/C=C\CCCCCCCC(=O)N1CCCC1 | 6.25 µg/mL (≈ 17.8 µM) | 6.25 µg/mL (≈ 17.8 µM)
14 | CCCCCCCCCCCCCCCC(=O)N[C@@H](C)c1ccccc1 | > 100 µg/mL | > 100 µg/mL
15 | CCCCCCCC/C=C\CCCCCCCC(=O)N1CCCCC1 | 25 µg/mL (≈ 71.5 µM) | 12.5 µg/mL (≈ 35.8 µM)
16 | CCCCCCCCCCCCCCCC(=O)N1CCCC1 | 25 µg/mL (≈ 80.8 µM) | 25 µg/mL (≈ 80.8 µM)
17 | CCCCCCCCCCCCCCCC(=O)N1CCCCC1 | 25 µg/mL (≈ 77.3 µM) | 25 µg/mL (≈ 77.3 µM)
18 | CCCCCCCCCCCCCCCC(=O)N[C@H](C)c1ccccc1 | > 100 µg/mL | > 100 µg/mL
19 | CCCCCCCC/C=C\CCCCCCCC(=O)N1CCCC1 | 12.5 µg/mL (≈ 37.2 µM) | 6.25 µg/mL (≈ 18.6 µM)
20 | CCCCCCCC/C=C\CCCCCCCC(=O)N[C@H](C)c1ccccc1 | 50 µg/mL (≈ 130 µM) | 12.5 µg/mL (≈ 32.4 µM)
21 | CCCCCC[C@@H](O)C/C=C\CCCCCCCC(=O)N1CCOCC1 | 12.5 µg/mL (≈ 34 µM) | 6.25 µg/mL (≈ 17 µM)
22 | CCCCCCCCCCCCCCCCCC(=O)N[C@H](C)c1ccccc1 | > 100 µg/mL | > 100 µg/mL
